Experimental data: PubChem BioAssay AID328 (DTP/NCI, 2004)
Where “and” joins values, the source holds several entries; their conditions need not be identical. Equal values may be shown once. Toxic doses and inconclusive results are not listed. How the source made its calls: active means survival T/C of 150% or more; inactive means T/C below 125% in these data.

System: BDF1 mice, P388 leukemia ip, median survival T/C
Assay: NCI In Vivo Anticancer Drug Screen. Data for tumor model P388 Leukemia (intraperitoneal) in B6D2F1 (BDF1) mice
Conditions: endpoint: median survival time, higher = longer survival
Outline: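 Steps: implant the tumour, treat one group with compound and another with vehicle, record survival, then divide treated by control.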

[1] = dose: 100.0 mg/kg/injection, schedule: Q04DX003 (ip), vehicle: Klucel (hydroxypropylcellulose) (HPC)
[2] = dose: 200.0 mg/kg/injection, schedule: Q04DX003 (ip), vehicle: Klucel (hydroxypropylcellulose) (HPC)
[3] = dose: 400.0 mg/kg/injection, schedule: Q04DX003 (ip), vehicle: Klucel (hydroxypropylcellulose) (HPC)
[4] = dose: 50.0 mg/kg/injection, schedule: Q01DX009 (ip), vehicle: saline with Tween-80
[5] = dose: 100.0 mg/kg/injection, schedule: Q01DX009 (ip), vehicle: saline with Tween-80
[6] = dose: 200.0 mg/kg/injection, schedule: Q01DX009 (ip), vehicle: saline with Tween-80
[7] = dose: 100.0 mg/kg/injection, schedule: Q04DX003 (ip), vehicle: saline with Tween-80
[8] = dose: 400.0 mg/kg/injection, schedule: Q04DX003 (ip), vehicle: saline with Tween-80
[9] = dose: 200.0 mg/kg/injection, schedule: Q04DX003 (ip), vehicle: saline with Tween-80
[10] = dose: 50.0 mg/kg/injection, schedule: Q04DX003 (ip), vehicle: saline with Tween-80
[11] = dose: 100.0 mg/kg/injection, schedule: Q01DX009 (ip), vehicle: Klucel (hydroxypropylcellulose) (HPC)
[12] = dose: 200.0 mg/kg/injection, schedule: Q01DX009 (ip), vehicle: Klucel (hydroxypropylcellulose) (HPC)
[13] = dose: 400.0 mg/kg/injection, schedule: Q01DX009 (ip), vehicle: Klucel (hydroxypropylcellulose) (HPC)

Measured: T/C

C[C@]1(O)CC[C@H]2[C@@H]3CCC4=CC(=O)CC[C@]4(C)[C@@]3(F)[C@@H](O)C[C@@]21C
inactive: [1] 100 % of control | [2] 95 % of control | [3] 95 % of control

Clc1ccc2c(c1)nnn2OC1CCCCC1
inactive: [4] 88 % of control | [5] 92 % of control | [6] 90 % of control

COc1ccc(/C=C2\CCCC3=C2N=C2SCC(=O)N2C3c2ccc(OC)cc2)cc1 (configuration not stated)
inactive: [7] 90 % of control | [8] 90 % of control

Cl
inactive: dose: 0.62 mg/kg/injection, schedule: Q01DX009 (ip), vehicle: water 100 % of control | dose: 1.25 mg/kg/injection, schedule: Q01DX009 (ip), vehicle: water 90 % of control | dose: 2.5 mg/kg/injection, schedule: Q01DX009 (ip), vehicle: water 104 % of control | dose: 5.0 mg/kg/injection, schedule: Q01DX009 (ip), vehicle: water 95 % of control | dose: 10.0 mg/kg/injection, schedule: Q01DX009 (ip), vehicle: water 100 % of control | dose: 20.0 mg/kg/injection, schedule: Q01DX009 (ip), vehicle: water 100 % of control | dose: 25.0 mg/kg/injection, schedule: Q01DX009 (ip), vehicle: water 90 % of control | dose: 50.0 mg/kg/injection, schedule: Q01DX009 (ip), vehicle: water 104 % of control

Nc1nc(N)c2cc(CNc3ccc(C(=O)NC(CC(=O)O)CC(=O)O)cc3)cnc2n1
inactive: [7] 101 % of control | [9] 113 % of control | dose: 300.0 mg/kg/injection, schedule: Q04DX003 (ip), vehicle: saline with Tween-80 86 % of control

OC(CC1CCCCN1)c1cc2c(Cl)cc(Cl)cc2c2cc(C(F)(F)F)ccc12 (configuration not stated)
inactive: [4] 114 % of control

c1ccc2c(c1)[nH]c1nc3ccncc3nc12
inactive: [10] 90 % of control | [7] 95 % of control

CCCCC(=O)OCC1OC(n2cnc3c(=S)nc[nH]c32)C(OC(=O)CCCC)C1OC(=O)CCCC (configuration not stated)
inactive: dose: 12.5 mg/kg/injection, schedule: Q01DX009 (sc), vehicle: olive oil, sesame oil, peanut oil 100 % of control | dose: 25.0 mg/kg/injection, schedule: Q01DX009 (sc), vehicle: olive oil, sesame oil, peanut oil 91 % of control | dose: 50.0 mg/kg/injection, schedule: Q01DX009 (sc), vehicle: olive oil, sesame oil, peanut oil 100 % of control | dose: 100.0 mg/kg/injection, schedule: Q01DX009 (sc), vehicle: olive oil, sesame oil, peanut oil 96 % of control | dose: 100.0 mg/kg/injection, schedule: Q04DX003 (sc), vehicle: olive oil, sesame oil, peanut oil 108 % of control | dose: 200.0 mg/kg/injection, schedule: Q04DX003 (sc), vehicle: olive oil, sesame oil, peanut oil 108 % of control | dose: 400.0 mg/kg/injection, schedule: Q04DX003 (sc), vehicle: olive oil, sesame oil, peanut oil 116 % of control

COC(=O)[C@H]1[C@H]2C[C@@H]3c4[nH]c5cc(OC)ccc5c4CCN3C[C@H]2C[C@@H](OC(=O)/C=C/c2cc(OC)c(OC)c(OC)c2)[C@@H]1OC
inactive: dose: 0.63 mg/kg/injection, schedule: Q01DX009 (ip), vehicle: saline with Tween-80 90 % of control | dose: 1.25 mg/kg/injection, schedule: Q01DX009 (ip), vehicle: saline with Tween-80 90 % of control | dose: 2.5 mg/kg/injection, schedule: Q01DX009 (ip), vehicle: saline with Tween-80 90 % of control

O=C1OC(=O)C2C3CCC(O3)C12 (configuration not stated)
inactive: dose: 0.39 mg/kg/injection, schedule: Q04DX003 (ip), vehicle: saline 100 % of control | dose: 0.65 mg/kg/injection, schedule: Q01DX001 (ip), vehicle: saline 104 % of control | dose: 0.78 mg/kg/injection, schedule: Q01DX009 (ip), vehicle: saline 105 % of control | dose: 0.78 mg/kg/injection, schedule: Q04DX003 (ip), vehicle: saline 100 % of control | dose: 1.31 mg/kg/injection, schedule: Q01DX001 (ip), vehicle: saline 100 % of control | dose: 1.56 mg/kg/injection, schedule: Q01DX009 (ip), vehicle: saline 100 % of control | dose: 1.56 mg/kg/injection, schedule: Q04DX003 (ip), vehicle: saline 100 % of control | dose: 2.3 mg/kg/injection, schedule: Q04DX003 (ip), vehicle: saline 110 % of control | dose: 2.62 mg/kg/injection, schedule: Q01DX001 (ip), vehicle: saline 100 % of control | dose: 3.5 mg/kg/injection, schedule: Q04DX003 (ip), vehicle: saline 115 % of control | dose: 5.2 mg/kg/injection, schedule: Q04DX003 (ip), vehicle: saline 100 % of control | dose: 5.25 mg/kg/injection, schedule: Q01DX001 (ip), vehicle: Klucel (hydroxypropylcellulose) (HPC) 91 % of control | dose: 5.25 mg/kg/injection, schedule: Q01DX001 (ip), vehicle: saline 95 % of control | dose: 7.2 mg/kg/injection, schedule: Q04DX003 (ip), vehicle: saline 100 % of control | dose: 21.0 mg/kg/injection, schedule: Q01DX001 (ip), vehicle: Klucel (hydroxypropylcellulose) (HPC) 87 % of control

NC(=O)CC(NC(=O)OCc1ccccc1)C(=O)OCc1ccccc1 (configuration not stated)
inactive: [4] 109 % of control | [5] 100 % of control | [7] 99 % of control | [6] 93 % of control | [9] 102 % of control | dose: 400.0 mg/kg/injection, schedule: Q01DX009 (ip), vehicle: saline with Tween-80 103 % of control | [8] 90 % of control

COC(CBr)OC
inactive: dose: 10.0 mg/kg/injection, schedule: Q01DX009 (ip), vehicle: saline 102 % of control | dose: 20.0 mg/kg/injection, schedule: Q01DX009 (ip), vehicle: saline 98 % of control | dose: 40.0 mg/kg/injection, schedule: Q01DX009 (ip), vehicle: saline 98 % of control

c1ccc(-c2c[se]nn2)cc1
inactive: dose: 1.56 mg/kg/injection, schedule: Q01DX009 (ip), vehicle: saline + alcohol 102 % of control | dose: 3.13 mg/kg/injection, schedule: Q01DX009 (ip), vehicle: saline + alcohol 100 % of control | dose: 6.25 mg/kg/injection, schedule: Q01DX009 (ip), vehicle: saline + alcohol 89 % of control | dose: 6.25 mg/kg/injection, schedule: Q01DX009 (ip), vehicle: saline with Tween-80 86 % of control

COC(=O)C1C(O)C(C)C(O)C(C)/C=C\C=C(C)C(=O)Nc2c(C)c(OC(C)=O)c3c(c2O)C(=O)C(C)=C2OCOC(=C23)C(C)=CC(C)(O)C(O)C(C)C1O (configuration not stated)
inactive: [11] 115 % of control | [12] 108 % of control and 115 % of control | [13] 106 % of control

O=C1/C(=C\c2ccc(Cl)cc2)SC(=S)N1c1ccccc1
inactive: dose: 37.5 mg/kg/injection, schedule: Q01DX009 (ip), vehicle: saline with Tween-80 88 % of control | dose: 75.0 mg/kg/injection, schedule: Q01DX009 (ip), vehicle: saline with Tween-80 97 % of control | dose: 150.0 mg/kg/injection, schedule: Q01DX009 (ip), vehicle: saline with Tween-80 108 % of control

Cc1ccc(S(=O)(=O)N/N=C/C(O)C(O)C(O)CO)cc1 (configuration not stated)
inactive: dose: 100.0 mg/kg/injection, schedule: Q01DX001 (ip), vehicle: saline 110 % of control | dose: 200.0 mg/kg/injection, schedule: Q01DX001 (ip), vehicle: saline 105 % of control | dose: 400.0 mg/kg/injection, schedule: Q01DX001 (ip), vehicle: saline 120 % of control

CC(=O)N(C(C)=O)c1cc([N+](=O)[O-])ccc1C
inactive: [7] 106 % of control | [9] 93 % of control

CCN(CC)c1ccc(NC(=O)NC(C)C)cc1
inactive: [10] 90 % of control | [7] 90 % of control | [9] 86 % of control

Cc1ccc(S(=O)(=O)N(C)c2ccc(C(=O)O)cc2F)cc1
inactive: dose: 75.0 mg/kg/injection, schedule: Q04DX003 (ip), vehicle: saline 100 % of control | dose: 150.0 mg/kg/injection, schedule: Q04DX003 (ip), vehicle: saline 104 % of control | dose: 300.0 mg/kg/injection, schedule: Q04DX003 (ip), vehicle: saline 100 % of control

O=C(OC1COC(n2c(=O)oc3ccc(F)cc32)C(OC(=O)c2ccccc2)C1OC(=O)c1ccccc1)c1ccccc1 (configuration not stated)
inactive: [11] 104 % of control | [1] 113 % of control | [12] 100 % of control | [2] 100 % of control | [13] 90 % of control | [3] 95 % of control

CC1=C2CC[C@H]3[C@@H]4CC[C@H](O)[C@@]4(C)CC[C@@H]3[C@@]2(C)CCC1=O
inactive: [7] 95 % of control | [9] 95 % of control | [8] 100 % of control
